Where two headings read alike, the source gives them in different places. Bounds are passed on as bounds.

Usually Cmax stands for the peak of the concentration-time curve.

Series [1] deals with BaF3 cells expressing ruxolitinib-resistant JAK2-V617F variants. Briefly: Dose-response analyses with ruxolitinib-resistant variants. The conditions noted are these: with or without IL-3. In kind it is cell-based.
Protocol: Ba/F3 cells expressing mutant BCR-ABL proteins were plated in 96-well plates (0.5–1 × 10^4 cell per well) in RPMI medium containing 10% FCS and lacking IL-3. Kinase inhibitors were included in the media at varying concentrations. After 60 hours, the number of viable cells was assessed using WST-1 reagent (Roche Applied Science, USA), according to the manufacturer’s specifications. Assays were performed in quadruplicate.
The test system of series [2] is BaF3 cells expressing JAK2-V617F/L983F. Briefly: BaF3 cell proliferation dose-response. In kind it is cell-based. The conditions noted are these: variant L983F in JAK2-V617F.
Series [3] concerns the target T1, JAK2 kinase domain E930G (Mus musculus, UniProt Q62120, E930G).
T1 construct: made in house; host or cells: Spodoptera frugiperda Sf9 (baculovirus)
In words: Dose response of purified kinase domain. In kind it is biochemical. The protocol:
(§1) Proteins were expressed in Spodoptera frugiperda, Sf9 cells. […] Each point mutants was confirmed by sequence analysis. […] All purification steps were carried out at 4 °C.

Series [4] has as its target T2, JAK2 kinase domain L983F (Mus musculus, UniProt Q62120, L983F).
T2 construct: made in house; host or cells: Spodoptera frugiperda Sf9 (baculovirus)
Briefly: Dose response of purified kinase domain. In kind it is biochemical. On the procedure: as §1

The test system of series [5] is BaF3 cells expressing TEL-JAK2. In words: BaF3 cell proliferation dose-response. In kind it is cell-based. The conditions noted are these: receptor-free fully activated JAK2 (TEL-JAK2); data not shown. The protocol: (§2) Assays were performed in quadruplicate.
In series [6] the test system is phospho-STAT5 in JAK3-transduced cells. In words: Phospho-STAT5 inhibition in transduced BaF3 cells. The conditions noted are these: Mus musculus. In kind it is cell-based.
For series [7], the system named is BaF3 cells expressing JAK2-V617F/Y931C/Y1045W. Briefly: BaF3 cell proliferation dose-response. In kind it is cell-based. The conditions noted are these: Mus musculus, BaF3, read-out: IC50, cell proliferation.
For series [8], the system named is TEL-JAK1-expressing BaF3 cells. In words: Soft-agar colony assay. In kind it is cell-based.
Series [9] deals with BaF3 cells expressing JAK2-V617F/Y931C/V1075F. In words: BaF3 cell proliferation dose-response. In kind it is cell-based. The conditions noted are these: Mus musculus, BaF3, read-out: IC50, cell proliferation.
The subject of series [10] is BaF3 cells expressing JAK2-V617F/Y931C/I1018F. Briefly: BaF3 cell proliferation dose-response. In kind it is cell-based. The conditions noted are these: Mus musculus, BaF3, read-out: IC50, cell proliferation.
Series [11] relates to BaF3 cells expressing JAK2-V617F/Y931C/W1020C. Briefly: BaF3 cell proliferation dose-response. In kind it is cell-based. The conditions noted are these: Mus musculus, BaF3, read-out: IC50, cell proliferation.
Series [12] has as its system BaF3 cells expressing JAK2-V617F/Y931C/F1019L. Briefly: BaF3 cell proliferation dose-response. In kind it is cell-based. The conditions noted are these: Mus musculus, BaF3, read-out: IC50, cell proliferation.
Series [13] deals with BaF3 cells expressing JAK2-V617F/Y931C/S1039F. Briefly: BaF3 cell proliferation dose-response. In kind it is cell-based. The conditions noted are these: Mus musculus, BaF3, read-out: IC50, cell proliferation.
For series [14], the system named is BaF3 cells expressing JAK2-V617F/Y931C/Y1045*. In words: BaF3 cell proliferation dose-response. The conditions noted are these: Mus musculus, BaF3, read-out: IC50, cell proliferation. In kind it is cell-based.
Series [15] concerns BaF3 cells transduced with randomly mutagenized JAK2-V617F. In words: In vitro drug-resistance screen, random mutagenesis. In kind it is cell-based. The conditions noted are these: ruxolitinib at 1, 2 and 5 μM; fedratinib at 2-fold above IC50. The protocol: To generate random mutation library of Jak2-V617F, E. coli XL1-red cells were transformed with one μg of JAK2-V617F plasmid DNA. More specifically, 50–100 ng of DNA (more than 100 ng of DNA decreases transformation efficiency) was mixed with 100 μl of competent cells in a pre-chilled polypropylene tube and incubated on ice for 30 min, gently swirling every 5 min. For a good library, four to six tubes of competent cells are used. Cells from each tube were plated on four 10 cm LB-agar plates containing 100-μg/ml ampicillin. Plates were incubated at 37 °C for 18–24 hours. When colonies became visible (18–24 hrs), cells were pooled from each plates and plasmid DNA was isolated using the Qiagen’s midiprep kit. At this stage, the heterogeneity of mutations in the library can be roughly assessed by restriction digestion with a frequent cutter such as Sau3A1 or Taq1 or sequencing.
To select resistant clones of JAK2-V617F, high titer retroviruses were produced as describe. One hundred million native BAF3 cells were transduced with 100 ml of virus supernatants having a viral titer of 0.5–1 × 10^6. […] We observed that the overexpression of EPOR or MPL tend to loose dependence on Jak2 resulting to emergence of false-positives[58]. More specifically, 100 × 10^6 cells were mixed with 100 ml of virus supernatant and 100 ml of RPMI, containing 10% serum and 24 μg/ml of polyberene. […]

The subject of series [16] is BaF3 cells expressing JAK2-V617F. The conditions noted are these: read-out: IC50, cell proliferation.
Series [17] deals with BaF3 cells expressing JAK2-V617F/Y931C/S1025C. In words: BaF3 cell proliferation dose-response. In kind it is cell-based. The conditions noted are these: Mus musculus, BaF3, read-out: IC50, cell proliferation.
Series [18] relates to BaF3 cells expressing JAK2-V617F. Briefly: Soft-agar colony assay. In kind it is cell-based.
Series [19] has as its system BaF3 cells expressing JAK2-V617F/Y931C/L1026F. Briefly: BaF3 cell proliferation dose-response. In kind it is cell-based. The conditions noted are these: Mus musculus, BaF3, read-out: IC50, cell proliferation.
Series [20] deals with BaF3 cells expressing JAK2-V617F/Y931C/W1038C. Briefly: BaF3 cell proliferation dose-response. The conditions noted are these: Mus musculus, BaF3, read-out: IC50, cell proliferation. In kind it is cell-based.
Series [21] relates to phospho-STAT5 in JAK1-transduced cells. Briefly: Phospho-STAT5 inhibition in transduced BaF3 cells. In kind it is cell-based. The conditions noted are these: Mus musculus. On the procedure:
as §2

The subject of series [22] is BaF3 cells expressing JAK2-V617F. Briefly: cells. The conditions noted are these: Mus musculus, BaF3, read-out: IC50, cell proliferation, BaF3 JAK2-V617F.
Series [23] has as its system BaF3 cells expressing JAK2-V617F/Y931C/F1061W. In words: BaF3 cell proliferation dose-response. In kind it is cell-based. The conditions noted are these: Mus musculus, BaF3, read-out: IC50, cell proliferation.
The test system of series [24] is TEL-JAK3-expressing BaF3 cells. In words: Soft-agar colony assay. In kind it is cell-based.
Series [25] concerns phospho-STAT5 in BaF3 cells expressing JAK2-V617 variant L983F. Briefly: Immunoblot analysis of phospho-STAT5. In kind it is cell-based.
Details of series [26]: method as in PMID 21257798. The conditions noted are these: at 100 mg/kg; cited from earlier work.
Series [27] concerns BaF3 cells expressing luciferase and JAK2-V617F/L983F. In words: In vivo efficacy, leukemic burden by bioluminescence. The conditions noted are these: 100 mg/kg twice daily, IP, two weeks.
For series [28], the system named is BaF3 cells expressing luciferase and JAK2-V617F. The description is as above. The conditions noted are these: 100 mg/kg twice daily, IP, two weeks.

T1 sequence (Q62120 849-1124 E930G limits assumed): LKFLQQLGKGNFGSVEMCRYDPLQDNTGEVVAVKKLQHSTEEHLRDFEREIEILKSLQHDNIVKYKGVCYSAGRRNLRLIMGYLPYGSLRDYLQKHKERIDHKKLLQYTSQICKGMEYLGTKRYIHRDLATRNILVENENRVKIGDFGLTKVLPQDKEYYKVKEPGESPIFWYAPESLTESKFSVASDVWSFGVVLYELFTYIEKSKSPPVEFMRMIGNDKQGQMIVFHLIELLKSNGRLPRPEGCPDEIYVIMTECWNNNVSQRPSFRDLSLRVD
T2 sequence (Q62120 849-1124 L983F limits assumed): as the sequence (Q62120 849-1124 E930G limits assumed) above, with G82E, L135F counted along it

`Cc1cc(Nc2nc(N[C@@H](C)c3ncc(F)cn3)ncc2Cl)n[nH]1` [AZD1480]: the “resistance of ruxolitinib-resistant variants” value in [1] is recorded as “cross-resistance”. Moreover, the “resistance or sensitivity of variant L983F” value in series [2] is on record as “resistance”.

Take `N#CCNC(=O)c1ccc(-c2ccnc(Nc3ccc(N4CCOCC4)cc3)n2)cc1` [CYT-387]: in series [1], the “resistance of ruxolitinib-resistant variants” value was “cross-resistance”. Moreover, the “resistance or sensitivity of purified kinase domain” value in series [3] and in series [4] was “sensitive” each time. The “resistance or sensitivity of variant L983F” value in [2] is reported as “full sensitivity”.

For the molecule `Cc1cnc(Nc2ccc(OCCN3CCCC3)cc2)nc1Nc1cccc(S(=O)(=O)NC(C)(C)C)c1` [fedratinib], in [5], the “increase in hypersensitivity of TEL-JAK2 in comparison to JAK2-V617F” value is on record as ~ 3 fold. Also, the IC50 in [6] is above 5000 nM; in series [7], 2110 nM; in series [9], 2250 nM; in [10], 1490 nM; in [11], 1010 nM; in [12], 1030 nM. In addition, the IC50 in [13] is 1640 nM; in series [14], 1680 nM; in series [16] it was around 900 nM; in [17], 2310 nM; in [19] it was 1690 nM; in series [20], 1580 nM. The IC50 is above 10000 nM in [21], 1070 nM in series [22] and 1980 nM in series [23]. Also, the “concentration up to which colony growth is supported” value in series [8] was determined as 6 µM; in series [24] it was 4 µM. In addition, the “resistance of ruxolitinib-resistant variants” value in series [1] was “complete lack of resistance”. Moreover, the “emergence of resistant clones” value in series [15] is listed as “did not result in any resistant clones”. Besides, in series [18], the “concentration above which cells failed to grow” value turned out to be 3 µM. In [25], the “phospho-STAT5 inhibition (immunoblot)” value is recorded as “dose-dependent inhibition”.

For `C[C@]12O[C@H](C[C@]1(O)CO)n1c3ccccc3c3c4c(c5c6ccccc6n2c5c31)CNC4=O` [lestaurtinib], the “resistance of ruxolitinib-resistant variants” value in series [1] is reported as “cross-resistance”. In addition, in series [2], the “resistance or sensitivity of variant L983F” value was “resistance”.

Consider `N#CC[C@H](C1CCCC1)n1cc(-c2ncnc3[nH]ccc23)cn1` [ruxolitinib], for which the Cmax in series [26] is 4.4 µM. Also, the “effect on transplanted cells (leukemic burden)” value in series [27] is “ineffective”; in series [28], “eradicated”.

These data come from publication PMC4588578, “Targeting substrate-site in Jak2 kinase prevents emergence of genetic resistance” (Scientific Reports, 2015).
